Measurements taken from patent US12338266B2 (GENETIC S.P.A., priority 2019, dated 2025).
Entries after “also recorded” stand apart in the source; their conditions may differ.

Experiments:
Type in all cases: in vivo, Balb/c mice
[1] = system: mice with OVA-induced allergic asthma; test: Bronchial reactivity to carbachol, isolated bronchi of OVA-sensitized mice (Protocol-1)
Method: Balb/c mice (8-9 weeks old, Charles River, Calco, Italy) were housed in the animal care facility at the Department of Pharmacy of the University of Naples. […] All animals were allowed to acclimate for four days prior to experiments and were subjected to 12 h light-12 h dark schedule. Each mouse was assigned an identity number and randomtzed to different groups so that all experiments were carried out in a blinded manner. The experimental procedures were approved by the Italian Ministry according to International and National law and policies (EU Directive 2010/63/EU and Italian DL 26/2014 for animal experiments, ARRIVE guidelines and the Basel declaration including the 3R concept). Animal studies are reported in compliance with the ARRIVE guidelines. Balb/c mice is the most widely mouse strain used to study asthma-like features in vivo and to investigate the undedying molecular and cellular mechanisms of allergen sensitization. Mice were treated subcutaneously (s.c.) with 0.4 mL (100 μg) of ovalbumin (OVA) complexed with alum (13 mg mL^−1) (OVA group) at day 0 and 7. Chicken egg-white ovalbumin (OVA: grade V. cat. A5503, Sigma Chemical Co., St. Louis, MO) was dissolved in sterile phosphate buffered saline (PBS) solution (250 μg/1 ml) and Al(OH)3 was added (at 13 mg/ml). This mix was used to induce the allergic sensitization of the animals by subcutaneous injection. OVA was dissolved at 3% in sterile PBS solution and this solution was nebulized (as the immunological challenges). At day 21 mice were exposed to OVA challenge for three days and then sacrificed. […] A group of animals was treated s.c. with saline (vehicle group). […] Animals were killed at selected time points by overdose of enflurane and bronchi and blood collected. Main bronchi were rapidly dissected and cleaned from fat and connective tissue. […] Results were expressed as dyne/mg tissue. In another set of experiments on bronchi pre-contracted with carbachol and salbutamol-induced relaxation was assessed.

[2] = system: mice with OVA-induced allergic asthma; test: Salbutamol-induced relaxation of carbachol pre-contracted bronchi of OVA-sensitized mice (Protocol-1)
Method: Balb/c mice (8-9 weeks old, Charles River, Calco, Italy) were housed in the animal care facility at the Department of Pharmacy of the University of Naples. […] All animals were allowed to acclimate for four days prior to experiments and were subjected to 12 h light-12 h dark schedule. Each mouse was assigned an identity number and randomtzed to different groups so that all experiments were carried out in a blinded manner. The experimental procedures were approved by the Italian Ministry according to International and National law and policies (EU Directive 2010/63/EU and Italian DL 26/2014 for animal experiments, ARRIVE guidelines and the Basel declaration including the 3R concept). Animal studies are reported in compliance with the ARRIVE guidelines. Balb/c mice is the most widely mouse strain used to study asthma-like features in vivo and to investigate the undedying molecular and cellular mechanisms of allergen sensitization. Mice were treated subcutaneously (s.c.) with 0.4 mL (100 μg) of ovalbumin (OVA) complexed with alum (13 mg mL^−1) (OVA group) at day 0 and 7. Chicken egg-white ovalbumin (OVA: grade V. cat. A5503, Sigma Chemical Co., St. Louis, MO) was dissolved in sterile phosphate buffered saline (PBS) solution (250 μg/1 ml) and Al(OH)3 was added (at 13 mg/ml). This mix was used to induce the allergic sensitization of the animals by subcutaneous injection. OVA was dissolved at 3% in sterile PBS solution and this solution was nebulized (as the immunological challenges). At day 21 mice were exposed to OVA challenge for three days and then sacrificed. […] A group of animals was treated s.c. with saline (vehicle group). […] Animals were killed at selected time points by overdose of enflurane and bronchi and blood collected. Main bronchi were rapidly dissected and cleaned from fat and connective tissue. Rings of 1-2 mm length were cut and mounted in 2.5 mL isolated organ baths containing Krebs solution, at 37° C., oxygenated (95% O2 and 5% CO2), and connected to an isometric force transducer (type 7000. Ugo Basile. Cornerio, Italy) associated to a Powerlab 800 (AD Instruments). Rings were initially stretched until a resting tension of 0.5 g and allowed to equilibrate for at least 30 min. In each experiment bronchial rings were previously challenged with acetylcholine (10^−6 M) until a reproducible response curve was obtained. Subsequently, after tissue washing, a cumulative concentration response curve to carbachol (10^−9-3×10^−6 M) was performed. Results were expressed as dyne/mg tissue. In another set of experiments on bronchi pre-contracted with carbachol and salbutamol-induced relaxation was assessed.

[3] = system: mice with OVA-induced allergic asthma; test: Lung hyperreactivity / Penh by whole body plethysmography (Protocol-2)
Method: Male Balb/c SPF mice (26*2 g, 6 week-old) were purchased from the animal house facilities at the Faculty of Medicine (University of Sāo Paulo, Brazil). They were group-housed in a temperature-controlled room at 22° C. with a 12/12-hour light/dark cycle and allowed free access to food and water. The study is in agreement with the Ethical Principles for Animal Research established by the Brazilian College for Animal Experimentation (COBEA). According to the internal laboratory rules, euthanasia will be performed if severe distress related to the test agents developed during the experiment. Mice were sensitized with two subcutaneous injections of 0.2 ml of OVA/Al(OH)3, with an interval of 7 days (Sham animals received the Al(OH)3 suspension in PBS with no OVA). Chicken egg-white ovalbumin (OVA; grade V, cat. A5503, Sigma Chemical Co., St. Louis, Mo.) was dissolved in sterile phosphate buffered saline (PBS) solution (50 μg/ml) and Al(OH)3 was added (at 8 mg/ml). This mix was used to induce the allergic sensitization of the animals by subcutaneous injection. OVA was dissolved at 1% in sterile PBS solution and this solution was nebulized (as the immunological challenges). Seven days after the second sensitization (i.e., 3rd week), the animals were nebulized twice a week with the 1% OVA solution (Sham and untreated OVA groups were nebulized with PBS) during 20 minutes for the next 4 weeks. Thirty minutes before the challenges (OVA nebulization) and daily during the next 4 weeks, mice were intra-nasally treated (10 μl/animal as 5 μl/nostril) with the respective compounds/vehicle. […] Animals were killed at selected time points by overdose of enflurane and BAL and blood collected.
Airway responsiveness in conscious, spontaneously breathing animals was measured at the end of the 6th week (i.e., after 4 weeks OVA challenges+treatments), 24 h after the last OVA/PBS challenge via whole body plethysmography (Buxco Europe Ltd, Winchester, UK). Experiments were carried out in a quiet room by an investigator who was unaware of the nature of treatments. Aerosolized saline (50 μl/mouse during 60 s) and then the muscarinic agonist metacholine (MCh) at increasing concentrations (3.12, 6.25, 12.5 and 25.0 mg/ml in PBS) was nebulized through an inlet of the main chamber for 3 min each to induce bronchoconstriction and readings were taken and averaged for 6 min following each nebulization. After 20 min. the baseline values usually returned at the end of this period. Enhanced pause (Penh) was measured as an indicator of bronchoconstriction and consequent increase of airway resistance as: Penh=[(expiration time/relaxation time)−1][…].

## CC(C)(O)c1ccccc1CCC(SCC1(CC(=O)OCC(=O)[C@@]23O[C@H](C4CCCCC4)O[C@@H]2C[C@H]2[C@@H]4CCC5=CC(=O)C=C[C@]5(C)[C@H]4[C@@H](O)C[C@@]23C)CC1)c1cccc(/C=C/c2ccc3ccc(Cl)cc3n2)c1 (stereo partly drawn) [montelukast desisobutyryl-ciclesonide ester]
[1]; 0.5, 1 and 2 mg/Kg i.p. 1 hour before OVA challenge, FIG. 5A
  control of bronchial hyper-reactivity (response to carbachol): good control of bronchial hyper-reactivity at all doses tested
[1]; ester 2 mg/kg i.p. vs ciclesonide 1 mg/kg, FIG. 6A
  control of hyper-reactivity to carbachol, compared to ciclesonide: major efficacy in the control of the development of hyper-reactivity to carbachol
[1]; ester 2 mg/kg i.p. vs montelukast 1 mg/kg, FIG. 7A
  effect on bronchial hyper-responsiveness, ester versus montelukast: comparable
[2]; 2 mg/Kg i.p.
  salbutamol-induced relaxation compared to vehicle: further increase in salbutamol-induced relaxation when compared to vehicle
[2]; 0.5, 1 and 2 mg/Kg i.p., FIG. 5B
  salbutamol-induced bronchial relaxation: rescued salbutamol ability to inducing bronchial relaxation at all doses tested
[2]; ester 2 mg/kg i.p. vs ciclesonide 1 mg/kg
  preserving salbutamol induced bronchial relaxation, compared to ciclesonide: significant major efficacy in preserving salbutamol induced bronchial relaxation
[2]; ester 2 mg/kg i.p. vs montelukast 1 mg/kg, FIG. 7B
  preserving salbutamol relaxation, ester versus montelukast: significantly enhanced
[3]; 10 nmol/animal/day, comparable with ciclesonide alone at 100 nmol/animal/day
  respiratory function at the lowest dose tested: significant effects
[3]; 10, 30 and 100 nmol/day/animal intranasal, daily for 4 weeks, FIG. 8A-D
  airway responsiveness, Penh (basal, methacholine Emax and AUC): Significant reduction of this response; also recorded: significantly reduced
